Assay results as given in paper PMC12022113 (Nature Communications, 2025).
“Also recorded” adds a separate entry of the source.

Columns and labels:
V1aR = conditions: cited from earlier work
V2R [1] = conditions: cited from earlier work
OTR = conditions: cited from earlier work
V2R Q291A mutant = V2R Q291A mutant (Homo sapiens, UniProt P30518, Q291A); type: binding
V2R R104A mutant = V2R R104A mutant (Homo sapiens, UniProt P30518, R104A); type: binding
V2R D103A mutant = V2R D103A mutant (Homo sapiens, UniProt P30518, D103A); type: binding
V2R E184A mutant = V2R E184A mutant (Homo sapiens, UniProt P30518, E184A); type: binding
[2] = in vivo; cited from earlier work
V2R S315A mutant = V2R S315A mutant (Homo sapiens, UniProt P30518, S315A); type: binding
V2R I209A mutant = V2R I209A mutant (Homo sapiens, UniProt P30518, I209A); type: binding
V2R F287A mutant = V2R F287A mutant (Homo sapiens, UniProt P30518, F287A); type: binding
V2R Q174A mutant = V2R Q174A mutant (Homo sapiens, UniProt P30518, Q174A); type: binding
V2R K116A mutant = V2R K116A mutant (Homo sapiens, UniProt P30518, K116A); type: binding
V2R Q119A mutant = V2R Q119A mutant (Homo sapiens, UniProt P30518, Q119A); type: binding
V2R [3] = conditions: cited from earlier work; remark: listed apart in the source

## Cc1nc2c([nH]1)-c1ccccc1N(C(=O)c1ccc(NC(=O)c3ccccc3-c3ccccc3)cc1)CC2 [Conivaptan]
V1aR
  affinity for V1aR: high affinity
V2R [1]
  selectivity to V2R: not selective to V2R

## CC[C@H](C)[C@@H]1C(=O)N[C@H](C2Cc3ccccc3C2)C(=O)N1[C@@H](C(=O)N1CCOCC1)c1coc(C)n1 [Retosiban]
OTR
  OTR antagonism: potent OTR-selective non-peptide antagonist

## Cc1ccccc1C(=O)Nc1ccc(C(=O)N2CCCC(O)c3cc(Cl)ccc32)c(C)c1 (centres unmarked) [TVP, 7-Chloro-5-hydroxy-1-[2-methyl-4-(2-methylbenzoylamino)benzoyl]-2,3,4,5-tetrahydro-1 H -1-benzazepine]
V2R Q291A mutant
  effect of mutation (loss or gain vs WT): less than 5 fold
  effect of mutation on affinity: moderate change in binding affinity
V2R R104A mutant
  effect of mutation (loss or gain vs WT): less than 5 fold
  effect of mutation on affinity: very limited effect or were without effect
V2R D103A mutant
  effect of mutation (loss or gain vs WT): less than 5 fold
V2R E184A mutant
  effect of mutation (loss or gain vs WT): less than 5 fold
  effect of mutation on affinity: very limited effect or were without effect
[2]
  liver injury: serious and potentially fatal liver injury
  urine volume: increasing the amount of urine volume
V2R S315A mutant
  effect of mutation (loss or gain vs WT): less than 5 fold
  effect of mutation on affinity: very limited effect or were without effect
V2R I209A mutant
  effect of mutation (loss or gain vs WT): less than 5 fold
  effect of mutation on affinity: very limited effect or were without effect
V2R F287A mutant
  effect of mutation on affinity: moderate change in binding affinity
V2R Q174A mutant
  effect of mutation on affinity: significant decrease in TVP affinity
V2R [1]
  affinity for V2R: high affinity
V2R K116A mutant
  effect of mutation on affinity: moderate change in binding affinity; also recorded: less pronounced regarding TVP affinity, but was significant
V2R Q119A mutant
  effect of mutation on affinity: significant gain in affinity
V2R [3]
  efficacy toward the Gs/cAMP pathway: inverse agonist
  inhibition of V2R-dependent signaling pathways: inhibit V2R-dependent signaling pathways
